Test results from US9976146B2, “Aptamer targeting MAGE-A3 peptide and uses thereof” (Academia Sinica, priority 2014, dated 2018).
pKd: −log10 of the molar value.

Legend:
MAGE-A3111-125 peptide [1] = molecular target: T1, MAGE-A3111-125 peptide (Homo sapiens, UniProt P43357); experiment: Peptide-magnetic bead binding assay with elution and PCR amplification (FIG. 1); details: peptide on streptavidin-coupled magnetic beads
Description: FIG. 1 is a photograph illustrating the PCR results of the binding affinity and specificity between Ap52 of Example 2 and specified peptides, in which peptide MAGE-A3111-125 (+), NY-ESO-1119-143 (N1), NY-ESO-1157-170 (N2), NY-ESO-187-111 (N3), or no peptide (−) were reacted with Ap52, followed by elution and PCR amplification; PB served as a control of oligonucleotide aptamer;
A total of ninety-four different sequences were obtained and further assayed individually for its binding affinity and specificity to MAGE-A3111-125. Plasmid DNA was first amplified by use of anchored PCR, as described above. The resulting ssDNA products were purified through 12% denaturing PAGE and incubated with the biotinylated peptide MAGE-A3111-125, which was pre-incubated with the streptavidin-coupled magnetic beads and thus formed a peptide-magnetic bead complex through the streptavidin-biotin interaction. The sequences that bound specifically to the peptide MAGE-A3111-125 were isolated by the magnet and subject to further purification, as the procedure described in library selection.
Thus, Ap52 is highly specific in terms of binding with MAGE-A3111-125 peptide.

MAGE-A3111-125 peptide [2] = molecular target: T1, MAGE-A3111-125 peptide; experiment: Isothermal titration calorimetry (ITC) for dissociation constant (Kd) determination; assay type: binding
Protocol: Isothermal Titration Calorimetry (ITC) for Dissociation Constant (Kd) Determination
Thermodynamic profile of the interaction between DNA and peptide was measured with a MicroCal iTC200 (GE Healthcare Life Sciences) at 25° C. in washing buffer (0.45% glucose, 5 mM MgCl2, in Dulbecco's Phosphate-Buffered Saline). The unmodified MAGE-A3111-125 peptide (0.3 mM, 200 μl) was titrated with 18 successive injections of 2 μl aptamer (0.1 mM) at 150 s intervals. The data were analyzed using MicroCal Origin 7 and fit with a one-set-of sites binding model to obtain values of enthalpy change (AH) and association constant (Ka).
Isothermal titration calorimetry (ITC) is a technique used to measure the thermodynamic profile of the interactions between two molecules, and thus can be used to determine the respective binding affinities of Ap16 and Ap52 to MAGE-A3111-125 peptide. […] Therefore, both Ap52 and Ap16 are effective in targeting MAGE-A3111-125-peptide.

[3] = ITC at 25° C. in washing buffer, one-set-of sites binding model

Substance	binding to MAGE-A3111-125 peptide (MAGE-A3111-125 peptide [1])	pKd (MAGE-A3111-125 peptide [2]; [3])	ΔH (enthalpy change) (MAGE-A3111-125 peptide [2]; [3])	Kd values, in words (MAGE-A3111-125 peptide [2]; general statement on binding to the MAGE-A3 peptide)
Ap16-control: 16-nucleotide region (SEQ ID NO: 7) from another oligonucleotide selected from SELEX, used as a negative control (ATCATTCGGATGTGTG; listed as DNA, chemistry not fully specified)	failed to bind			
Ap16: oligonucleotide aptamer of 16 nucleotides AGCACTCAATATTCCC (SEQ ID NO: 1), central randomized region of Ap52 (listed as DNA, chemistry not given here)		7.02	-41 kcal/mol	nanomolar range
